# ChEMBL document CHEMBL5370678, “Covalent Stapling of the Cereblon Sensor Loop Histidine Using Sulfur-Heterocycle Exchange” (ACS Med Chem Lett, 2023)
# Activity calls are given as the source filed them. The calls are words filed in the database; no cut-off is given here.
# Key:
# [1] = Binding affinity to human StrepTag-Avi-CRBN-His6-Spy-fused DDB1deltaB mutant complex expressed in baculovirus infected high-five insect cells assessed as labeling of His353 residue at 15 uM measured after 24 hrs by LC-MS analysis relative to control; conditions: Insect cell
# [2] = Stability of the compound in human plasma assessed as half life at 1 uM by LC-MS/MS analysis; type: ADME, cell-free
# [3] = Cytotoxicity against human MOLT-4 cells assessed as reduction in cell viability incubated for 24 hrs by CellTiter Glo Luminescent cell viability assay; type: toxicity, cell-based
# [4] = Stability of the compound in human liver microsomes assessed as half life at 1 uM by LC-MS/MS analysis; type: ADME, Microsome
# [5] = Stability of the compound in human hepatocytes assessed as half life at […] by LC-MS/MS analysis; type: ADME, cell-based, Hepatocyte
# [6] = tested on: MOLT-4; test: Induction of protein degradation in human MOLT-4 cells at 1 uM measured after 5 hrs by LC-MS analysis; type: functional, cell-based
# [7] = Drug metabolism in human plasma assessed as glutarimide-hydrolysis at 10 uM measured after 120 mins by LC-UV-MS analysis; type: ADME, cell-free; conditions: 2 h
# [8] = Drug metabolism in human plasma assessed as sulfonyl imidazole motif hydrolysis at 10 uM measured after 120 mins by LC-UV-MS analysis; type: ADME, cell-free; conditions: 2 h
# [9] = biological target: Protein cereblon (Homo sapiens, UniProt Q96SW2); test: Displacement of BODIPY-lenalidomide from human N-terminal NanoLuc-fused CRBN expressed in HEK293T cells incubated for 2 hrs by NanoBRET assay; type: cell-based
# Sequence of Protein cereblon (Q96SW2 whole entry, the tested form may be a part): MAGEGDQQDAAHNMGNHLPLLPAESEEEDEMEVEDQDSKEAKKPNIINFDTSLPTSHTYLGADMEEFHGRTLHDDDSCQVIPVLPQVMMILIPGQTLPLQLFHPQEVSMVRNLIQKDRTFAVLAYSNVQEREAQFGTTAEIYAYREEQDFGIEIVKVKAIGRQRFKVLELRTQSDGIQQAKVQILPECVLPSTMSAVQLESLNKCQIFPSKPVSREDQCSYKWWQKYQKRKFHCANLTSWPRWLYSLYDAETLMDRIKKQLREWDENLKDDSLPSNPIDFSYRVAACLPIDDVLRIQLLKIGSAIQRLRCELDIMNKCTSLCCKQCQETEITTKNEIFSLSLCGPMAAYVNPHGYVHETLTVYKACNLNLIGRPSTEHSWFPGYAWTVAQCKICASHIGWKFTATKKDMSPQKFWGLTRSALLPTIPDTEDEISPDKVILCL
Structure (SMILES),Activity [1] [%],half-life at 1 µM [2] [h],also measured
O=C1CCC(N2Cc3ccc(S(=O)(=O)n4nccn4)cc3C2=O)C(=O)N1 (centres undefined),90,–,–
O=C1CCC(N2Cc3ccc(S(=O)(=O)n4cncn4)cc3C2=O)C(=O)N1 (centres undefined),90,< 0.0167,–
Nc1ccn(S(=O)(=O)c2ccc3c(c2)C(=O)N(C2CCC(=O)NC2=O)C3)c(=O)n1 (centres undefined),55,> 4.82,–
O=C1CCC(N2Cc3ccc(S(=O)(=O)n4cnc(F)c4)cc3C2=O)C(=O)N1 (centres undefined),90,0.317,–
O=C1CCC(N2Cc3ccc(S(=O)(=O)n4cnc(C(F)(F)F)c4)cc3C2=O)C(=O)N1 (centres undefined),75,0.108,–
O=C1CCC(N2Cc3ccc(S(=O)(=O)n4ccc(F)n4)cc3C2=O)C(=O)N1 (centres undefined),37,1.92,–
Cc1cn(S(=O)(=O)c2ccc3c(c2)C(=O)N(C2CCC(=O)NC2=O)C3)cn1 (centres undefined),< 5,4.78,–
O=C1CCC(N2Cc3ccc(S(=O)(=O)n4ccnc4)cc3C2=O)C(=O)N1 (centres undefined),> 95,1.57,CC50 at 24 h [3]: > 10 µM; half-life at 1 µM [4]: > 2.42 h; half-life [5]: > 3.62 h; Activity [6]: inactive
O=C1CCC(N2Cc3ccc(S(=O)(=O)n4ccc(C(F)(F)F)n4)cc3C2=O)C(=O)N1 (centres undefined),90,0.233,–
O=C1CCC(N2Cc3ccc(S(=O)(=O)n4ccc(=O)[nH]c4=O)cc3C2=O)C(=O)N1 (centres undefined),90,2.72,–
O=C1CCC(N2Cc3ccc(S(=O)(=O)n4cc(F)cn4)cc3C2=O)C(=O)N1 (centres undefined),67,1.53,–
O=C1CCC(N2Cc3ccc(OS(=O)(=O)F)cc3C2=O)C(=O)N1 (centres undefined),75,–,–
Cc1cnn(S(=O)(=O)c2ccc3c(c2)C(=O)N(C2CCC(=O)NC2=O)C3)c1 (centres undefined),< 5,> 4.82,–
Cc1cn(S(=O)(=O)c2ccc3c(c2)C(=O)N(C2CCC(=O)NC2=O)C3)c(=O)[nH]c1=O (centres undefined),90,3.98,–
O=C1CCC(N2Cc3ccc(S(=O)(=O)n4cc(C(F)(F)F)cn4)cc3C2=O)C(=O)N1 (centres undefined),90,0.167,–
O=C1CCC(N2Cc3ccccc3C2=O)C(=O)N1 (centres undefined),–,–,CC50 at 24 h [3]: > 10 µM; half-life at 1 µM [4]: > 2.42 h; half-life [5]: > 3.62 h; Drug metabolism [7]: Metabolite_Detected; Drug metabolism [8]: Metabolite_Detected
O=C1CCC(N2Cc3ccc(S(=O)(=O)F)cc3C2=O)C(=O)N1 (centres undefined),> 95,–,IC50 [9]: 0.0011 µM
